Measured values published in ChEMBL document CHEMBL1124555, “9-Amino-1,2,3,4-tetrahydroacridin-1-ols: synthesis and evaluation as potential Alzheimer's disease therapeutics” (J Med Chem, 1989).

What was measured:
[1] = species: Mus musculus; type: functional; details: at 0.16 mg/kg
Description: Reversal of scopolamine-induced memory impairment in mice at 0.16 mg/Kg administered subcutaneously.

[2] = species: Mus musculus; type: functional; details: at […]
Description: Reversal of scopolamine-induced memory impairment in mice at 0.31 mg/Kg administered subcutaneously.

[3] = species: Mus musculus; type: functional; details: at 0.63 mg/kg
Description: Reversal of scopolamine-induced memory impairment in mice at 0.63 mg/Kg administered subcutaneously.

[4] = species: Mus musculus; type: functional; details: at 1.25 mg/kg
Description: Reversal of scopolamine-induced memory impairment in mice at 1.25 mg/Kg administered subcutaneously.

[5] = species: Mus musculus; type: functional; details: at 2.5 mg/kg
Description: Reversal of scopolamine-induced memory impairment in mice at 2.5 mg/Kg administered subcutaneously.

[6] = species: Mus musculus; type: functional; details: at 5 mg/kg
Description: Reversal of scopolamine-induced memory impairment in mice at 5 mg/Kg administered subcutaneously.

[7] = test system: Mus musculus; assay: Intra peritoneal administration for the reversal of tetrabenazine ptosis in mice; type: functional
[8] = Toxicity was evaluated in mice, after intraperitoneal administration;Value ranges from(83-107); type: organism-based; details: mouse, in vivo, ip
[9] = target: Sodium-dependent dopamine transporter (Rattus norvegicus, UniProt P23977); type: functional
Chain of Sodium-dependent dopamine transporter (P23977 whole entry): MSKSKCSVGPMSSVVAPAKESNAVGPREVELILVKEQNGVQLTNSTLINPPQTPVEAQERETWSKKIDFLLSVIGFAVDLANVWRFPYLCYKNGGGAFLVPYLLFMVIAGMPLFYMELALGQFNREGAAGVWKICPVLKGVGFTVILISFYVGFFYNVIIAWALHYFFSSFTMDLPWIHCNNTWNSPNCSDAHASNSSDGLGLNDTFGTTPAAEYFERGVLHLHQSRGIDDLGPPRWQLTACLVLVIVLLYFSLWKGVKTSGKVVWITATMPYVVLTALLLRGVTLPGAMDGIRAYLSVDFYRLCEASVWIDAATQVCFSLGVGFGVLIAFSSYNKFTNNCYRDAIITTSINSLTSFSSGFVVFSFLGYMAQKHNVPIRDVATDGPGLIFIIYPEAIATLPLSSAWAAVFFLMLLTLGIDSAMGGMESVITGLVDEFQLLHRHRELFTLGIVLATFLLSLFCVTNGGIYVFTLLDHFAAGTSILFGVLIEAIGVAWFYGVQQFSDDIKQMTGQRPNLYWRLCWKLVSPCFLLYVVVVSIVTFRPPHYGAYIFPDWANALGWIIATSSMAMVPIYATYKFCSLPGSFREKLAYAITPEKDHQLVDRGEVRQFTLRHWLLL
Description: Inhibition of the reuptake of dopamine in rat corpora striata.

[10] = target: Sodium-dependent serotonin transporter (Rattus norvegicus, UniProt P31652); type: functional
Chain of Sodium-dependent serotonin transporter (P31652 whole entry): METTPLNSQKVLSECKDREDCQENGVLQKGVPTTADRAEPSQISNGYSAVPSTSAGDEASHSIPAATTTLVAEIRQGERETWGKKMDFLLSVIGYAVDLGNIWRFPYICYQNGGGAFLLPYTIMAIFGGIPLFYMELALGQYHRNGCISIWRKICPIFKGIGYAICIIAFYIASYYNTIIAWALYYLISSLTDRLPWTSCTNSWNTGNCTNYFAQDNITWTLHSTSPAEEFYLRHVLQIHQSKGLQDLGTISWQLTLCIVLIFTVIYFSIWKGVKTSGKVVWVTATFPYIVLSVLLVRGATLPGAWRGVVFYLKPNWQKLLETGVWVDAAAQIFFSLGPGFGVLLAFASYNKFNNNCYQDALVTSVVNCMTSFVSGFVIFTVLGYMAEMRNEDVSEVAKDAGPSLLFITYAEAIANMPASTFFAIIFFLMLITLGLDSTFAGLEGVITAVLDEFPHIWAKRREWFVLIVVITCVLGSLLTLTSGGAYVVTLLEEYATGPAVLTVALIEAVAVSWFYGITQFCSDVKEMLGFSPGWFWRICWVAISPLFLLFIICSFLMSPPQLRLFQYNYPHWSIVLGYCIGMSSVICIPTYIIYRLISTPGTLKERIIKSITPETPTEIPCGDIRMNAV
Description: Inhibition of serotonin reuptake in rat whole brains without cerebellum

[11] = Toxicity was evaluated in rats, after intraperitoneal administration;Value ranges from 50-60; type: organism-based; details: rat, in vivo, ip
[12] = species: Mus musculus; assay: Compound was tested in nbm model of mice, for the dose at which reversal of retention deficit in lesioned animals and enhanced learning in sham-pperated animals was observed; type: functional
[13] = target: T1, Acetylcholinesterase (Rattus norvegicus, UniProt P37136); assay: In vitro inhibition against acetylcholinesterase in rat striatal; type: functional
T1 sequence (P37136 whole entry): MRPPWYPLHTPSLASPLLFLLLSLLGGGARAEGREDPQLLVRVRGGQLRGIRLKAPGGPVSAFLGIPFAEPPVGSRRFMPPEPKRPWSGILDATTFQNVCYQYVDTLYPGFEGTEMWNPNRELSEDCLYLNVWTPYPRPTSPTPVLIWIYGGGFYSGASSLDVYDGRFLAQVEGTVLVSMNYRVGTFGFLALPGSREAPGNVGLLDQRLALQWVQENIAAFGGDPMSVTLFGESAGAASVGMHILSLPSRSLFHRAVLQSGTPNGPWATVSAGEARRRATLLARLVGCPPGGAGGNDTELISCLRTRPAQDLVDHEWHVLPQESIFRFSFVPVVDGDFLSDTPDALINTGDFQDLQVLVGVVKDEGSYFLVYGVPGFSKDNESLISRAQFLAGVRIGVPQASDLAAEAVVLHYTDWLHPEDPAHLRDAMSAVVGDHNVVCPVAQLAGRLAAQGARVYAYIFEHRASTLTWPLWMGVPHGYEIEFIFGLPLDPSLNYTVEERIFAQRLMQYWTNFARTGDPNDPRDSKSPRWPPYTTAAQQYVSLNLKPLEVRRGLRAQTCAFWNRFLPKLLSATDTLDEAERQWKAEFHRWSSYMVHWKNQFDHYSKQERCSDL

[14] = target: Norepinephrine transporter (Rattus norvegicus, UniProt Q9WTR4)
Chain of Norepinephrine transporter (Q9WTR4 whole entry): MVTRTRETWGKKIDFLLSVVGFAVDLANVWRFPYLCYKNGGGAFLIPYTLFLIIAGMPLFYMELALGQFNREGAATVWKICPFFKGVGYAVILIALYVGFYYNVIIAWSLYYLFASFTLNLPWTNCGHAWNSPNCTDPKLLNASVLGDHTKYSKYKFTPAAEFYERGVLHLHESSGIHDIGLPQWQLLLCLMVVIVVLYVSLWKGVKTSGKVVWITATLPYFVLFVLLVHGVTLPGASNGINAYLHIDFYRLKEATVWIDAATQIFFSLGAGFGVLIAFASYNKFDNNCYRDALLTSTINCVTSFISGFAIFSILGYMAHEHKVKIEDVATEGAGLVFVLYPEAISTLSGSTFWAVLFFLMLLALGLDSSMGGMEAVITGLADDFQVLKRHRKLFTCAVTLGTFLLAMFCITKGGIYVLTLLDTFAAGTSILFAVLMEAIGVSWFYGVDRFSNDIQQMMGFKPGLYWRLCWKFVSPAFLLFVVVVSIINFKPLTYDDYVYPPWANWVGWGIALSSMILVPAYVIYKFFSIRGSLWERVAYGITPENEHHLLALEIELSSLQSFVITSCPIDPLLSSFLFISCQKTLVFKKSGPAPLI
Description: Inhibition of norepinephrine reuptake in rat whole brains minus cerebellar

[15] = target: T1, Acetylcholinesterase
Description: In vitro inhibition against acetylcholinesterase in rat striata.

[16] = in vivo; details: rat, ip
Description: Toxicity evaluated in rats after intraperitoneal administration.

[17] = Toxicity was evaluated in rats, after intraperitoneal administration;Value ranges from(40-80); type: organism-based; details: rat, in vivo, ip
[18] = Toxicity was evaluated in rats, after intraperitoneal administration;Value ranges from (40-80).; type: organism-based; details: rat, in vivo, ip
[19] = in vivo; details: mouse, ip
[20] = species: Rattus norvegicus; assay: cells
Description: Compound was evaluated for inhibition of the reuptake of norepinephrine

[21] = Toxicity was evaluated in rats, after intraperitoneal administration;Value ranges from (40-80); type: organism-based; details: rat, in vivo, ip

SMILES	Animals [1]	Animals [2]	Animals [3]	Animals [4]	Animals [5]	Animals [6]	ED50 [7]	IC50 [9]	IC50 [10]	IC50 [14]	IC50 [15]	other results
OC1CCCc2nc3ccccc3c(NCc3ccccc3)c21 (centres undefined) [SURONACRINE]	27%	50%	20%	13%	21%	36%	27.4 mg/kg	0.3 µM	11 µM	0.07 µM	–	LD50 [8]: 94 mg/kg; LD50 [11]: < 60 mg/kg; Dose [12]: 20 mg/kg; IC50 [13]: 32.2 µM
OC1CCCc2nc3ccccc3c(NCc3ccccc3C(F)(F)F)c21 (centres undefined)	38%	23%	13%	20%	13%	33%	16.2 mg/kg	0.95 µM	3.8 µM	0.081 µM	13.3 µM	LD50 [16]: 80 mg/kg
Cc1ccccc1CNc1c2c(nc3ccccc13)CCCC2O (centres undefined)	0%	7%	7%	13%	7%	0%	25.3 mg/kg	0.25 µM	9 µM	0.053 µM	5.89 µM	LD50 [17]: < 80 mg/kg
Nc1c2c(nc3ccccc13)CCCC2O (centres undefined) [VELNACRINE]	14%	20%	33%	20%	31%	33%	–	> 20 µM	> 20 µM	> 20 µM	4 µM	LD50 [18]: < 80 mg/kg; LD50 [19]: 162 mg/kg
Nc1c2c(nc3ccc(Cl)cc13)CCCC2O (centres undefined)	–	–	–	–	–	–	–	–	–	–	24.7 µM	IC50 [20]: > 10 µM; LD50 [16]: 80 mg/kg
CNc1c2c(nc3ccccc13)CCCC2O (centres undefined)	0%	7%	0%	7%	7%	7%	–	> 20 µM	> 20 µM	> 20 µM	1.76 µM	LD50 [21]: < 80 mg/kg
CCCNc1c2c(nc3ccccc13)CCCC2O (centres undefined)	–	–	–	–	–	–	–	> 20 µM	> 20 µM	–	13.3 µM	LD50 [17]: < 80 mg/kg; IC50 [20]: > 20 µM
